Assay results from ChEMBL document CHEMBL1201862, “PubChem BioAssay data set” (2004).
Activity calls are given as the source filed them.

Columns and labels:
Cytochrome P450 2D6 = Cytochrome P450 2D6 (Homo sapiens, UniProt P10635);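 also: CYP2D6 member of a cytochrome P450 panel assay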
fMet-Leu-Phe receptor = fMet-Leu-Phe receptor (Homo sapiens, UniProt P21462); assay: formyl peptide receptor binders – dose response (AID 519); type: functional
Cytochrome P450 3A4 = Cytochrome P450 3A4 (Homo sapiens, UniProt P08684);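 also: CYP3A4 tested as one member of a cytochrome P450 panel screen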
Cytochrome P450 3A4, sequence (P08684 whole entry): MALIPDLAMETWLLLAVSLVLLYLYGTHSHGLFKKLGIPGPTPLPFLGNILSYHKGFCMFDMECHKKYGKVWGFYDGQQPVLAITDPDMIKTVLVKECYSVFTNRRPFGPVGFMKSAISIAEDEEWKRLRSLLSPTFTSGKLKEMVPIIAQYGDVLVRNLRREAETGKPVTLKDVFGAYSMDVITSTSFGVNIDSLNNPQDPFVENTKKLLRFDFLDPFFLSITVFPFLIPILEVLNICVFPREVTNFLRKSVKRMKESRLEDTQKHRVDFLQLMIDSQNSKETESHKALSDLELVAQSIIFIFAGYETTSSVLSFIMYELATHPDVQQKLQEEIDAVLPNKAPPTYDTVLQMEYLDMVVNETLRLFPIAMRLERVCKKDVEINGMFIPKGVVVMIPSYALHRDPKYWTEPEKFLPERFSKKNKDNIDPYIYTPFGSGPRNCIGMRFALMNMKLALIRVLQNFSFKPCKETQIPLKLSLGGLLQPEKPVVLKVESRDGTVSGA

ORF 73 = biological target: T1, ORF 73 (Human herpesvirus 8, UniProt O40947); assay: KSHV LANA DNA-binding disruption – biochemical, fluorescence polarization, cherry-picked samples, dose response (AID 504725); design: species or system Human gammaherpesvirus 8;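 also: fluorescence polarization of a labeled DNA duplex reporting LANA DNA binding; potency is for inhibitors that block LANA binding to the DNA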
T1 sequence (O40947 whole entry): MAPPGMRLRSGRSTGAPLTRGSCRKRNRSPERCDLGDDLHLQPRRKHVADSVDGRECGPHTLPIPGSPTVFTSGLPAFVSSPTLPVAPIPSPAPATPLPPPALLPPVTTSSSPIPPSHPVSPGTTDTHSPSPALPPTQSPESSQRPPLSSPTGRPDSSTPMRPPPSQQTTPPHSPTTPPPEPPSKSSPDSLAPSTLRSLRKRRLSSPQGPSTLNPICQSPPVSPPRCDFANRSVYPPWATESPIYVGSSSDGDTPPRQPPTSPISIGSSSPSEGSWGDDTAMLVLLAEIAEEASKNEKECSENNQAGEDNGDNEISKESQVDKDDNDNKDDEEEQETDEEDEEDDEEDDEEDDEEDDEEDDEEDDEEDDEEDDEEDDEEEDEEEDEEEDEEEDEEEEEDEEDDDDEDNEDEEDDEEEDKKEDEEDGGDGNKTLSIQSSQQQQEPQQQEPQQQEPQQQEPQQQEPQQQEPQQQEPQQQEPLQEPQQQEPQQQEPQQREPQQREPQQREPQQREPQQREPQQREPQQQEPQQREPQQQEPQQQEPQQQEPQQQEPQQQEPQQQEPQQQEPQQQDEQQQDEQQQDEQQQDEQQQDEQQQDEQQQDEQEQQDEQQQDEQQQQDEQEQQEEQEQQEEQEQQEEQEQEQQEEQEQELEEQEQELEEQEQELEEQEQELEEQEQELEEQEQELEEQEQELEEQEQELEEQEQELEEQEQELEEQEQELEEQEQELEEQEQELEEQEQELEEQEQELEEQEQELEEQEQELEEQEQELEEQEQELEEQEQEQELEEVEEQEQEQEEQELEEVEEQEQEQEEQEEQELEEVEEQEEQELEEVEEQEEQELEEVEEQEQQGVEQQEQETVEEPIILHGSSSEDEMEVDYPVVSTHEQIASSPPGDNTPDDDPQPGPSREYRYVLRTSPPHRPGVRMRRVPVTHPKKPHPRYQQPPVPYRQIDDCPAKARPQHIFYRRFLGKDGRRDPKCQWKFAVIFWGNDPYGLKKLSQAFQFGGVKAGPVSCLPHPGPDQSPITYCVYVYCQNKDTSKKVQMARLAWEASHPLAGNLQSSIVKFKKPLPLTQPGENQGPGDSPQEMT

[1] = biological target: T2, Voltage-gated N-type calcium channel alpha-1B subunit/Amyloid beta A4 precursor protein-binding family A member 1 (Homo sapiens, UniProt Q00975+Q02410); type: protein assay
T2 sequence (Q00975 whole entry): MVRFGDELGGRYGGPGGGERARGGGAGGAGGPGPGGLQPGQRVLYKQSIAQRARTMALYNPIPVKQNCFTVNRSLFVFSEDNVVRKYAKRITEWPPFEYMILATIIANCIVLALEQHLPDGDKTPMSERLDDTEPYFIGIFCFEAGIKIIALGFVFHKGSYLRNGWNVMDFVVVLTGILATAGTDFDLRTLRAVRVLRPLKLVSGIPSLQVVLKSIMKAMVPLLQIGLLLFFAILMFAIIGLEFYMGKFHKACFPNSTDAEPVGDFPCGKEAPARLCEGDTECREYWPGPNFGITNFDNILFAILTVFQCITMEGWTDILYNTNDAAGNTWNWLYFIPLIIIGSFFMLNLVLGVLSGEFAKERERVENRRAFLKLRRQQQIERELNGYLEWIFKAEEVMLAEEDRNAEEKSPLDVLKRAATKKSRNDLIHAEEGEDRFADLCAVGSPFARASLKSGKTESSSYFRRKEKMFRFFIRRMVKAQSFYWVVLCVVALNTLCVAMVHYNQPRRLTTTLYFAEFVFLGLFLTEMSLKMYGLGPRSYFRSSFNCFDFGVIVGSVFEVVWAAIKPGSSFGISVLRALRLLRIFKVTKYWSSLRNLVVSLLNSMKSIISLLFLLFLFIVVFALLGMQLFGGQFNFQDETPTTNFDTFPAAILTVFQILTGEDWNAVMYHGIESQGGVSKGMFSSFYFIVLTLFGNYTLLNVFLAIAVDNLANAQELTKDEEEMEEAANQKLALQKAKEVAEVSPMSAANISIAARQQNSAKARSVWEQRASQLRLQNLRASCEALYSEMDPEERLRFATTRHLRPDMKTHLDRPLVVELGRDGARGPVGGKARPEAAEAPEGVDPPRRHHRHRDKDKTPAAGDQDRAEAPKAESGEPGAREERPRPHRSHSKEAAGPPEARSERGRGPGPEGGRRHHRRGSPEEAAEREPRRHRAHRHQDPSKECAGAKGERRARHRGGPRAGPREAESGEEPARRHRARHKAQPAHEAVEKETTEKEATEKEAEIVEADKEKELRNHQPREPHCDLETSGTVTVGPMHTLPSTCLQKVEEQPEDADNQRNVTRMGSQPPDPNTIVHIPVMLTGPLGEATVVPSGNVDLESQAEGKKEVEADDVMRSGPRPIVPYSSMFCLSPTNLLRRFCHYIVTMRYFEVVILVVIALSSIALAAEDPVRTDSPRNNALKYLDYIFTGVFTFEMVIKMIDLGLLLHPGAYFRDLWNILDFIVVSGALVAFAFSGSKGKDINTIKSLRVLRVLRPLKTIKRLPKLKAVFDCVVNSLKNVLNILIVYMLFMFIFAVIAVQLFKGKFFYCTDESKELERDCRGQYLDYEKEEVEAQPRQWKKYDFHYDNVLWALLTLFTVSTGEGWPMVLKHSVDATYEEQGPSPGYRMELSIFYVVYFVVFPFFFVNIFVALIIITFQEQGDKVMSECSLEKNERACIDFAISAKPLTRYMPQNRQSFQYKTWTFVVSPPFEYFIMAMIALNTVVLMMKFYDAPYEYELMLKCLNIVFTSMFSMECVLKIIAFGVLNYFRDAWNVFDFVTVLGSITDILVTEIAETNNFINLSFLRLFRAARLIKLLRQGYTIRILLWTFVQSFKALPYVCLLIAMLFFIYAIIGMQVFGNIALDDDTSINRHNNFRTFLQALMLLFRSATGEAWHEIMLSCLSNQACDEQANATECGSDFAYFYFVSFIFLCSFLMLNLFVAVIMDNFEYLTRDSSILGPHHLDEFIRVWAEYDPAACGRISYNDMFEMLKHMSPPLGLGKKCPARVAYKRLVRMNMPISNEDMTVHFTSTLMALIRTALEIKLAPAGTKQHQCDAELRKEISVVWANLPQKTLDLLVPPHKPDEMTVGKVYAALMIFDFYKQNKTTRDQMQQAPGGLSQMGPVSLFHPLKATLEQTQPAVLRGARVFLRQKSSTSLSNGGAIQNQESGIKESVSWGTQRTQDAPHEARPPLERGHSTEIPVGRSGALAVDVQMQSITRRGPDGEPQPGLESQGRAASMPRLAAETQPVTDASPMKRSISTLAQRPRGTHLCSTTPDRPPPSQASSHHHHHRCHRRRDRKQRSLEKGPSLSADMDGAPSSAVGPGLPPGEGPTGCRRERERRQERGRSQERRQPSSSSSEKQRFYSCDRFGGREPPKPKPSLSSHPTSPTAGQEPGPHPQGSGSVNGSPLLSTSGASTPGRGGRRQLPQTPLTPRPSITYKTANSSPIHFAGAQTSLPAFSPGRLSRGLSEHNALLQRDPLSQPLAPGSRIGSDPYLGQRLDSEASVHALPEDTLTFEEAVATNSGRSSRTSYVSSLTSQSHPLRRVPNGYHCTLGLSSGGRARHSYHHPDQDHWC
T2 sequence (Q02410 whole entry): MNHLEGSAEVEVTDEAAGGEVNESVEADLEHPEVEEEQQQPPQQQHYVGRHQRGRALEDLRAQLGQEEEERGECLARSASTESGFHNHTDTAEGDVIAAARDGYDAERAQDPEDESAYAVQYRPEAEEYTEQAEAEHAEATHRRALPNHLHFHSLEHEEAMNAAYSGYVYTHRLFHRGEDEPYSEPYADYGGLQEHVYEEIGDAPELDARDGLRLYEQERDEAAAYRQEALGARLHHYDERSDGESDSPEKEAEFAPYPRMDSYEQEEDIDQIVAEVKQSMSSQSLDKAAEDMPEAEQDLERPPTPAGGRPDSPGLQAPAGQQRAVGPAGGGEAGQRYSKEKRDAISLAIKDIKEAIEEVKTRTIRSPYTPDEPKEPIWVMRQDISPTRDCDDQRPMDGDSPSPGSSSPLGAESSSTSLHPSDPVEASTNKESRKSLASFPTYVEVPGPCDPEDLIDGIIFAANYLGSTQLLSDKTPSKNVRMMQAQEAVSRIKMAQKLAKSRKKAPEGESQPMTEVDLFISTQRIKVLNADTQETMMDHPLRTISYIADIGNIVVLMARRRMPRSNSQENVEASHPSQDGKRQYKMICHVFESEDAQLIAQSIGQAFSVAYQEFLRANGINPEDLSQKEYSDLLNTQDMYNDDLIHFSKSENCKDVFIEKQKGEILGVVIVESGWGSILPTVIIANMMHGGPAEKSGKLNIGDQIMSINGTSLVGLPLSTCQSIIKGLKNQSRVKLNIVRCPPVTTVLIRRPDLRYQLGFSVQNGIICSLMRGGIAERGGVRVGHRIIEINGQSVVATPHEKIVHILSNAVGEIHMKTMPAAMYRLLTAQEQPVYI

Keap1/Nrf2 = Keap1/Nrf2 (Homo sapiens, UniProt Q14145); assay: disruptors of Keap1 binding to Nrf2 peptide – biochemical, fluorescence polarization, cherry-picked samples, dose response (AID 588683)
[2] = biological target: UDP-galactopyranose mutase (Mycobacterium tuberculosis, UniProt P9WIQ1); assay: Inhibitors of Mycobacterium tuberculosis UDP-galactopyranose mutase (UGM) enzyme Measured in Biochemical System Using Plate Reader - 2105-02_Inhibitor_Dose_CherryPick_Activity. [Related pubchem assays (depositor defined):AID504439]
[3] = biological target: T2, Voltage-gated N-type calcium channel alpha-1B subunit/Amyloid beta A4 precursor protein-binding family A member 1; type: protein assay; remark: listed apart in the source
Beta-lactamase [4] = biological target: Beta-lactamase (Salmonella choleraesuis (strain SC-B67), UniProt Q5J463)
Beta-lactamase (Salmonella choleraesuis (strain SC-B67), UniProt Q5J463), sequence (Q5J463 whole entry): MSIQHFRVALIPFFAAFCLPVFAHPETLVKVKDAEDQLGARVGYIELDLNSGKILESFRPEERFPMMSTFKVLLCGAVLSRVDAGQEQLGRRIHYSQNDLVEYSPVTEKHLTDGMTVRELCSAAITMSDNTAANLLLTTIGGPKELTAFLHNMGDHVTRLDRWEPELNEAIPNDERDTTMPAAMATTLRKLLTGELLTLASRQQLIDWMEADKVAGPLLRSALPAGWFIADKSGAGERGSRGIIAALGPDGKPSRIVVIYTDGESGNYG

Beta-lactamase [5] = biological target: Beta-lactamase (Pseudomonas aeruginosa, UniProt Q79MP6);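 also: biochemical dose-response test of metallo-beta-lactamase enzyme inhibition, read out by epi-absorbance; purified recombinant IMP-1 metallo-beta-lactamase with nitrocefin as substrate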
Beta-lactamase (Pseudomonas aeruginosa, UniProt Q79MP6), sequence (Q79MP6 whole entry): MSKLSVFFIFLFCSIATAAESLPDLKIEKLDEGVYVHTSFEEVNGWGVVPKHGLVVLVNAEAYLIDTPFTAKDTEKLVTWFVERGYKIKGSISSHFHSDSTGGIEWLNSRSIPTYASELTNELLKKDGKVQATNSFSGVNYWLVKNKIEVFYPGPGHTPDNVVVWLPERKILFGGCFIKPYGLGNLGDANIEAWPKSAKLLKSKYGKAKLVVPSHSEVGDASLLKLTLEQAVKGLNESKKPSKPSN

Cytochrome P450 2C19 = Cytochrome P450 2C19 (Homo sapiens, UniProt P33261); assay: Cytochrome panel assay with activity outcomes. Panel member name: p450-cyp2c19 Compounds with AC50 equal or less than 10 uM are considered active; type: functional; conditions: read-out: AC50
Cytochrome P450 1A2 = biological target: T3, Cytochrome P450 1A2 (Homo sapiens, UniProt P05177);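 also: PubChem cytochrome P450 panel assay, CYP1A2 panel member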
T3 sequence (P05177 whole entry): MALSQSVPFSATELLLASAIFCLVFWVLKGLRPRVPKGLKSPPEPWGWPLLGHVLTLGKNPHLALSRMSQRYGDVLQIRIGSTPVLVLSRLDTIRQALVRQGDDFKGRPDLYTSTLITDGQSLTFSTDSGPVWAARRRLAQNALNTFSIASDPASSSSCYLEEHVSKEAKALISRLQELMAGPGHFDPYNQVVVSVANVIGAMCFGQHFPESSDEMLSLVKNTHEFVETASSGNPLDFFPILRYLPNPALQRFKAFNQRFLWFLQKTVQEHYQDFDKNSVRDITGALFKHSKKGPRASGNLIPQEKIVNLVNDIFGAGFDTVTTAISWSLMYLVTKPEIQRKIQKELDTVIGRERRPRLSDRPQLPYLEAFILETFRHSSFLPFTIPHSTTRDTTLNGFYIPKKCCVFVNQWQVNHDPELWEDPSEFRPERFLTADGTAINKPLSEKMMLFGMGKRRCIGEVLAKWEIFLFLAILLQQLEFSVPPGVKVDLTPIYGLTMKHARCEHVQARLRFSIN

Cytochrome P450 2C9 = Cytochrome P450 2C9 (Homo sapiens, UniProt P11712)

Cytochrome P450 2D6, sequence (P10635 whole entry): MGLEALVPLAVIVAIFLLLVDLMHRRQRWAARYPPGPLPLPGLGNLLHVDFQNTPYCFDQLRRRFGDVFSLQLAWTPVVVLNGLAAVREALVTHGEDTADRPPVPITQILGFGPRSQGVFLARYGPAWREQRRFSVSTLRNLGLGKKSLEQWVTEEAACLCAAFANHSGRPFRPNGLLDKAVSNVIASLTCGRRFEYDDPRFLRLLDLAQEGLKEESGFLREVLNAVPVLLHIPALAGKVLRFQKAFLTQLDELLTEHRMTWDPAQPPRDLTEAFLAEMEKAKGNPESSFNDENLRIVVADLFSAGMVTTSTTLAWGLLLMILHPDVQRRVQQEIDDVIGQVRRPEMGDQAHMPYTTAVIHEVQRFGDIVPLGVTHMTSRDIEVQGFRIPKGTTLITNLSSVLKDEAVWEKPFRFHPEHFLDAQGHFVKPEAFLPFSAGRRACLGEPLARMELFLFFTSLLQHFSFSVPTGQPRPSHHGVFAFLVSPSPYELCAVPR
fMet-Leu-Phe receptor, sequence (P21462 whole entry): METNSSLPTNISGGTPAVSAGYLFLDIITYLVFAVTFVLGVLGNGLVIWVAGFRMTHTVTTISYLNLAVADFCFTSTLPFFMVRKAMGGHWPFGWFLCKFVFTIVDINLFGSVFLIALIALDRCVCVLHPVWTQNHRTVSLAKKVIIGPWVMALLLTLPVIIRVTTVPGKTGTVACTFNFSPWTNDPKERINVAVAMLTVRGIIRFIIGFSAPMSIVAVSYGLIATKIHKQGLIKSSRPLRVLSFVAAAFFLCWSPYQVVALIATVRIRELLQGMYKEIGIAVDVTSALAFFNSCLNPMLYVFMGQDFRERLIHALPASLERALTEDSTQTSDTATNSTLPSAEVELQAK

## Cc1c(C(=O)NC2CCCc3ccccc32)oc2ccc(S(=O)(=O)N3CCOCC3)cc12 (stereo not drawn)
Cytochrome P450 2D6
  AC50: inconclusive
fMet-Leu-Phe receptor
  Ki: 37 µM (inactive)
Cytochrome P450 3A4
  AC50: inconclusive

## CCCCn1c(=O)[nH]c2nc3cc(N)ccc3nc2c1=O
ORF 73
  AC50: 2.4 µM (active)
[1]
  IC50: > 50 µM (inactive)
Keap1/Nrf2
  AC50: 3.52 µM (active)
[2]
  AC50: 2.42 µM (active)
[3]
  IC50: 19.1 µM (active)
Beta-lactamase [4]
  IC50: 7.87 µM (active)
Beta-lactamase [5]
  IC50: 20.7 µM (inactive)

## CCOC(=O)N1CCN(Cc2nc3c(c(=O)[nH]c(=O)n3C)n2Cc2ccccc2C)CC1
Cytochrome P450 2C19
  AC50: 20 µM (inconclusive)
Cytochrome P450 1A2
  AC50: inconclusive
Cytochrome P450 2C9
  AC50: 35.5 µM (inconclusive)
